Test results: US7157569B2, “Mutation associated with epilepsy” (Bionomics Limited, priority 2000, dated 2007)
Entries after “also recorded” stand apart in the source; their conditions may differ.

Tests used:
[1] = molecular target: T1, wild-type GABRA1:GABRB2:GABRG2 (α1β2γ2) GABAA receptor (Homo sapiens, UniProt P14867+P18507+P47870); experiment: Diazepam potentiation of GABA currents, two-electrode voltage clamp in Xenopus laevis oocytes, wild-type channels; type: cell-based; settings: GABA 1 μM, diazepam 1 μM
T1 construct: expressed in transfected cells; host or cells: Xenopus laevis oocytes (cRNA injection)
T1 sequence (P18507 40-467 isoform P18507-1 limits assumed, one chain of several): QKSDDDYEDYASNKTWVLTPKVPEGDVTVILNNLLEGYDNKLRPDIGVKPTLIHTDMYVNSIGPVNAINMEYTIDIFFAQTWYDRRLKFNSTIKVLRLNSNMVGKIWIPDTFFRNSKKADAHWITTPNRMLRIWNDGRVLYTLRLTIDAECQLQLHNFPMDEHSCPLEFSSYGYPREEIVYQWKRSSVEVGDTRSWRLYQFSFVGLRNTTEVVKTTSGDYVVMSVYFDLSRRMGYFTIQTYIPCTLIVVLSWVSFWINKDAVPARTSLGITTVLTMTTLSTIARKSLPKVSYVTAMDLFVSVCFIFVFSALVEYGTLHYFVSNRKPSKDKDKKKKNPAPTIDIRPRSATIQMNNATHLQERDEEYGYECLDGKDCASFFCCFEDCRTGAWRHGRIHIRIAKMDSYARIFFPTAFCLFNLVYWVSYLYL
Description: (§1) To test the effects of the GABRG2 mutations on GABAA receptor function, electrophysiological analysis of Xenopus laevis oocytes were conducted. cDNAs encoding the GABRA1, GABRB2 and GABRG2 subunits of the human GABAA receptor were subcloned into pcDNA3.1(+). The c245G→A and c1168C→T mutations were introduced separately into GABRG2 of the human GABAA receptor using the QuickChange site directed mutagenesis kit (Stratagene, La Jolla, Calif.). […] Successful mutagenesis was identified by DNA sequencing. Wild-type and mutant cDNAs were linearised and gel purified and cRNA was made using the T7 RNA polymerase Message Machine in vitro RNA synthesis kit (Ambion). Samples of cRNA were run on denaturing agarose gels to ensure they were the correct size and were not degraded. Xenopus laevis oocytes (stage V or VI) were microinjected with ˜25 ng of cRNA representing the GABAA subunits. A tenfold molar excess of wild-type and mutant GABRG2 was used to promote assembly of the ternary (GABRA1:GABRB2:GABRG2) rather than binary (GABRA1:GABRB2) complex. Oocytes were then stored in OR2 buffer (82.5 mM NaCl, 2 mM KCl, 1 mM MgCl2, 5 mM HEPES, pH 7.5, supplemented with 2% foetal bovine serum, 100 U/ml penicillin, 100 μg/ml streptomycin, Life Technologies) and incubated at 18° C. for three to five days to allow for adequate receptor expression. […]

[2] = molecular target: T2, mutant GABRA1:GABRB2:GABRG2(R43Q) [α1β2γ2 (R43Q)] GABAA receptor (Homo sapiens, UniProt P14867+P18507+P47870, R82Q/T120M/T181S); experiment: Diazepam potentiation of GABA currents, two-electrode voltage clamp in Xenopus laevis oocytes, R43Q mutant channels; type: cell-based; settings: for small, insignificant decrease in GABA current with diazepam, mean±SEM: GABA 1 μM, diazepam 1 μM, R43Q mutant channels, n=17, a decrease, not a potentiation
T2 construct: expressed in transfected cells; host or cells: Xenopus laevis oocytes (cRNA injection)
T2 sequence (P14867 28-456): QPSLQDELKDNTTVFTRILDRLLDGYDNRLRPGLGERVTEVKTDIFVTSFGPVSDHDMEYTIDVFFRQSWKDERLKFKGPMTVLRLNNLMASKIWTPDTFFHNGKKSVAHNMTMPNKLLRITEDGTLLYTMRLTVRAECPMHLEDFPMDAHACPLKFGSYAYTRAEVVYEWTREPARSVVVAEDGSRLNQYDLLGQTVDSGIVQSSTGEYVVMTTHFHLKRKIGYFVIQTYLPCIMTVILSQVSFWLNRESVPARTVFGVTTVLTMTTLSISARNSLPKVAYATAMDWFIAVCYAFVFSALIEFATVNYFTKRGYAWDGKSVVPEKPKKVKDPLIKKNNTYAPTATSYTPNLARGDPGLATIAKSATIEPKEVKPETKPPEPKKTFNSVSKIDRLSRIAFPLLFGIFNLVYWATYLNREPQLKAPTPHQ
T2 sequence (P47870 26-512): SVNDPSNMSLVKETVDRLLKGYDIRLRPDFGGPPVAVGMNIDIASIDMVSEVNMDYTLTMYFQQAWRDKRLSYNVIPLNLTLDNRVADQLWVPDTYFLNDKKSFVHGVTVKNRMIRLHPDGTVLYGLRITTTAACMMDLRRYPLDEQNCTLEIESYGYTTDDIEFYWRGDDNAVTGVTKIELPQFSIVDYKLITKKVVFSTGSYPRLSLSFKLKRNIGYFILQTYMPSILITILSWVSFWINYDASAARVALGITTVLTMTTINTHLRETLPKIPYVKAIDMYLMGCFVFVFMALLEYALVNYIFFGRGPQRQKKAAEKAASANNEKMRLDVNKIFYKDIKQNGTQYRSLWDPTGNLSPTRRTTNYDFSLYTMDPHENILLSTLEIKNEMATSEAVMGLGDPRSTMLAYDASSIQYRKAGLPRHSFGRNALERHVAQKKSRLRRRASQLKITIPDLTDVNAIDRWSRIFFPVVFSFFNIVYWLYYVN
T2 sequence (P18507 40-467 isoform P18507-1 R82Q/T120M/T181S): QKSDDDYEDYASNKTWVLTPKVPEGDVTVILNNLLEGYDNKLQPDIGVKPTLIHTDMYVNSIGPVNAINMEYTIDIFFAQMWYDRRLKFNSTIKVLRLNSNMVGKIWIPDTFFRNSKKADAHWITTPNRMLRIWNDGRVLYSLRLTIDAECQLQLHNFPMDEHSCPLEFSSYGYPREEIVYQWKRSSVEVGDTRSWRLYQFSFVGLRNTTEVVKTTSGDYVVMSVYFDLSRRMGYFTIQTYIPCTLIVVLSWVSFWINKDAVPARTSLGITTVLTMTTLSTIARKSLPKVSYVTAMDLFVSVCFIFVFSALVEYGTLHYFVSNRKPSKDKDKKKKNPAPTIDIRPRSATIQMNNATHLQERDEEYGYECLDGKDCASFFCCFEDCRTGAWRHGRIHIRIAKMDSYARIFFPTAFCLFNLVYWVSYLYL
Description: To test the effects of the GABRG2 mutations on GABAA receptor function, electrophysiological analysis of Xenopus laevis oocytes were conducted. cDNAs encoding the GABRA1, GABRB2 and GABRG2 subunits of the human GABAA receptor were subcloned into pcDNA3.1(+). The c245G→A and c1168C→T mutations were introduced separately into GABRG2 of the human GABAA receptor using the QuickChange site directed mutagenesis kit (Stratagene, La Jolla, Calif.). […] Successful mutagenesis was identified by DNA sequencing. Wild-type and mutant cDNAs were linearised and gel purified and cRNA was made using the T7 RNA polymerase Message Machine in vitro RNA synthesis kit (Ambion). Samples of cRNA were run on denaturing agarose gels to ensure they were the correct size and were not degraded. Xenopus laevis oocytes (stage V or VI) were microinjected with ˜25 ng of cRNA representing the GABAA subunits. A tenfold molar excess of wild-type and mutant GABRG2 was used to promote assembly of the ternary (GABRA1:GABRB2:GABRG2) rather than binary (GABRA1:GABRB2) complex. Oocytes were then stored in OR2 buffer (82.5 mM NaCl, 2 mM KCl, 1 mM MgCl2, 5 mM HEPES, pH 7.5, supplemented with 2% foetal bovine serum, 100 U/ml penicillin, 100 μg/ml streptomycin, Life Technologies) and incubated at 18° C. for three to five days to allow for adequate receptor expression. Current recordings from oocytes were made using a two-electrode voltage clamp (AxoClamp 2B, Axon Instruments), with recordings made at a holding potential of −80 mV. Electrodes were filled with 3 M KCl and were of 1–2 MΩ resistance. Oocytes were continuously perfused with ND96 solution (96 mM NaCl, 2 mM KCl, 1 mM MgCl2, […] and 5 mM HEPES, pH 7.5). gamma-Aminobutyric acid (GABA; Sigma-Aldrich, Australia) was applied by bath perfusion.

[3] = system: GABAA receptor from 50:50 mixture of GABRG2 and GABRG2(R43Q); experiment: Diazepam potentiation in oocytes injected with 50:50 mixture of GABRG2 and GABRG2(R43Q) cRNA; type: cell-based, human; settings: n=8
Description: as §1

[4] = system: GABRA1:GABRB2:GABRG2(Q351X) GABAA receptor; experiment: GABA current response in Xenopus laevis oocytes, Q351X mutant; type: cell-based, human; settings: 1:1:10 GABRA1:GABRB2:GABRG2(Q351X) cRNA injection ratio
Description: (§2) To test the effects of the GABRG2 mutations on GABAA receptor function, electrophysiological analysis of Xenopus laevis oocytes were conducted. cDNAs encoding the GABRA1, GABRB2 and GABRG2 subunits of the human GABAA receptor were subcloned into pcDNA3.1(+). The c245G→A and c1168C→T mutations were introduced separately into GABRG2 of the human GABAA receptor using the QuickChange site directed mutagenesis kit (Stratagene, La Jolla, Calif.). The oligonucleotide represented by SEQ ID NO:50 (5′ GGATATGACAATAAACTTCAGCCTGATATAGGAGTGAAGCC 3′) was used to incorporate the c245G→A mutation, while the oligonucleotide represented by SEQ ID NO:51 (5′ GCGAATTCATTAAATGGTTGCTGATCTTGGGCG 3′) was used to incorporate the c1168C→T mutation. Successful mutagenesis was identified by DNA sequencing. Wild-type and mutant cDNAs were linearised and gel purified and cRNA was made using the T7 RNA polymerase Message Machine in vitro RNA synthesis kit (Ambion). Samples of cRNA were run on denaturing agarose gels to ensure they were the correct size and were not degraded. Xenopus laevis oocytes (stage V or VI) were microinjected with ˜25 ng of cRNA representing the GABAA subunits. A tenfold molar excess of wild-type and mutant GABRG2 was used to promote assembly of the ternary (GABRA1:GABRB2:GABRG2) rather than binary (GABRA1:GABRB2) complex. […]

[5] = molecular target: T3, GABRA1:GABRB2:GABRG2 wild-type GABAA receptor (Homo sapiens, UniProt P14867+P18507+P47870); experiment: GABA current response in Xenopus laevis oocytes, wild-type GABRG2; type: cell-based; settings: 1:1:10 ratio with wild-type GABRG2
T3 construct: expressed in transfected cells; host or cells: Xenopus laevis oocytes (cRNA injection)
T3 sequence (P18507 40-467 isoform P18507-1 limits assumed, one chain of several): as the sequence (P18507 40-467 isoform P18507-1 limits assumed, one chain of several) above
Description: as §2

[6] = molecular target: T4, GABRA1:GABRB2 GABAA receptor (Homo sapiens, UniProt P14867+P47870); experiment: GABA current response in Xenopus laevis oocytes, GABRA1:GABRB2:water; type: cell-based; settings: 1:1:10 GABRA1:GABRB2:water injection ratio
T4 construct: expressed in transfected cells; host or cells: Xenopus laevis oocytes (cRNA injection)
T4 sequence (P14867 28-456): T2 sequence (P14867 28-456)
T4 sequence (P47870 26-512): T2 sequence (P47870 26-512)
Description: as §2

[7] = molecular target: T5, GABAA receptor containing GABRG2(R43Q) (Homo sapiens, UniProt P14867+P18507+P47870, R82Q/T120M/T181S); experiment: GABA electrophysiological response in Xenopus oocytes, GABRG2(R43Q); type: cell-based; settings: oocytes expressing GABRG2 or GABRG2(R43Q)
T5 construct: expressed in transfected cells; host or cells: Xenopus laevis oocytes (cRNA injection)
T5 sequence (P14867 28-456): T2 sequence (P14867 28-456)
T5 sequence (P47870 26-512): T2 sequence (P47870 26-512)
T5 sequence (P18507 40-467 isoform P18507-1 R82Q/T120M/T181S): T2 sequence (P18507 40-467 isoform P18507-1 R82Q/T120M/T181S)
Description: as §2

[8] = molecular target: T6, mutant [α1β2γ2 (R43Q)] GABAA receptor (Homo sapiens, UniProt P14867+P18507+P47870, R82Q/T120M/T181S); experiment: Zn2+ sensitivity of GABA-activated currents in Xenopus laevis oocytes, R43Q mutant channels; type: cell-based
T6 construct: expressed in transfected cells; host or cells: Xenopus laevis oocytes (cRNA injection)
T6 sequence (P14867 28-456): T2 sequence (P14867 28-456)
T6 sequence (P47870 26-512): T2 sequence (P47870 26-512)
T6 sequence (P18507 40-467 isoform P18507-1 R82Q/T120M/T181S): T2 sequence (P18507 40-467 isoform P18507-1 R82Q/T120M/T181S)
Description: as §2

[9] = molecular target: T7, wild-type (α1β2γ2) GABAA receptor (Homo sapiens, UniProt P14867+P18507+P47870); parameters: expressed in transfected cells; settings: correct assembly of GABRA1, GABRB2 and GABRG2; Draguhn et al, 1990; cited from earlier work
T7 sequence (P18507 40-467 isoform P18507-1 limits assumed, one chain of several): as the sequence (P18507 40-467 isoform P18507-1 limits assumed, one chain of several) above

[10] = molecular target: T8, GABRA1 and GABRB2 (α1β2) GABAA receptor (Homo sapiens, UniProt P14867+P47870); parameters: expressed in transfected cells; settings: GABRA1 and GABRB2 alone; Draguhn et al, 1990; cited from earlier work
T8 sequence (P14867 28-456): T2 sequence (P14867 28-456)
T8 sequence (P47870 26-512): T2 sequence (P47870 26-512)

[11] = molecular target: T7, wild-type (α1β2γ2) GABAA receptor; experiment: Zn2+ sensitivity of GABA-activated currents in Xenopus laevis oocytes, wild-type channels; type: cell-based; parameters: expressed in transfected cells; host or cells: Xenopus laevis oocytes (cRNA injection); settings: Zn2+ 10 μM, n=9
Description: as §2

[12] = molecular target: T8, GABRA1 and GABRB2 (α1β2) GABAA receptor; experiment: Zn2+ sensitivity of GABA-activated currents in Xenopus laevis oocytes, GABRA1 and GABRB2 alone; type: cell-based; parameters: expressed in transfected cells; host or cells: Xenopus laevis oocytes (cRNA injection)
Description: as §2

CN1C(=O)CN=C(c2ccccc2)c2cc(Cl)ccc21 [diazepam]
increase of GABA currents by diazepam (potentiation), mean±SEM ([1]; n=20, P<0.01): 303±33%
increase of GABA currents by diazepam (potentiation), mean±SEM ([1]; n=20, P<0.01, listed as Diazepam): 302±33%
small, insignificant decrease in GABA current with diazepam, mean±SEM [2]: 10±6%
small, insignificant decrease in GABA current with diazepam, mean±SEM ([2]; listed as Diazepam): 10%±6
diazepam potentiation ([2]; receptors containing the GABRG2(R43Q) subunit): completely abolished
intermediate diazepam potentiation [3]: 129±30%

NCCCC(=O)O [GABA, gamma-Aminobutyric acid]
current response to GABA [4]: abolishes responses to GABA; also recorded: no current response
current response to GABA [5]: strong current responses
current response to GABA [6]: gave current responses
electrophysiological responses to GABA versus wild-type GABRG2 [7]: indistinguishable

[Zn+2] [Zn^2+]
effect of Zn2+ compared with wild-type GABRG2 ([8]; GABRG2(R43Q) versus GABRG2 expressing oocytes): same effect
partial inhibition of the GABA current by Zn2+ ([8]; Zn2+ 10 μM, R43Q mutant, n=9): 40±5%
sensitivity of currents to Zn2+ [9]: significantly less sensitive
sensitivity of currents to Zn2+ [10]: extremely sensitive
partial inhibition of the GABA current by Zn2+ [11]: 37±2%
GABA-activated current abolished by Zn2+ ([12]; Zn2+ 10 μM, GABA 100 μM, α1β2 alone, n=8): 89±7%
effect of Zn2+ on GABA-activated currents ([12]; oocytes expressing only GABRA1 and GABRB2): totally abolished
